In article doi:10.64898/2025.12.05.692609v2, “Early intervention with a PACAP lactoside following repetitive mild traumatic brain injury prevents persistent LHb hyperactivity and motivational deficits in male mice” (bioRxiv, 2025):
Where two headings read alike, the source gives them in different places. Where a SMILES comes first, the peptide text is derived from it. [ ]: non-standard residue; d: D form. The star is where a group is joined. X1 = OC[C@H]1O[C@@H](O[C@H]2[C@H](O)[C@@H](O)[C@H](*)O[C@@H]2CO)[C@H](O)[C@@H](O)[C@H]1O; Nle = CCCC[C@H](N)C(=O)O

System: LHb neurons
Format: in vivo, male C57BL/6 mice
[1] = mTBI+early TES2320: 10 mg/kg i.p. within 30 min after each of 5 injuries, cell-attached V=0, ~4 weeks post-injury, n=138 cells/13 mice
[2] = mTBI+late TES2320: single 10 mg/kg i.p. injection one month post-mTBI, cell-attached V=0, n=58 cells/5 mice

For `CCCC[C@H](NC(=O)[C@H](CCC(N)=O)NC(=O)[C@H](CCCCN)NC(=O)[C@H](CCCNC(=N)N)NC(=O)[C@H](Cc1ccc(O)cc1)NC(=O)[C@H](CCCNC(=N)N)NC(=O)[C@H](CO)NC(=O)[C@H](Cc1ccc(O)cc1)NC(=O)[C@H](CO)NC(=O)[C@H](CC(=O)O)NC(=O)[C@@H](NC(=O)[C@H](Cc1ccccc1)NC(=O)[C@@H](NC(=O)CNC(=O)[C@H](CC(=O)O)NC(=O)[C@H](CO)NC(=O)[C@@H](N)Cc1c[nH]cn1)[C@@H](C)CC)[C@@H](C)O)C(=O)N[C@@H](C)C(=O)N[C@H](C(=O)N[C@@H](CCCCN)C(=O)N[C@@H](CCCCN)C(=O)N[C@@H](Cc1ccc(O)cc1)C(=O)N[C@@H](CC(C)C)C(=O)N[C@@H](CO[C@@H]1O[C@H](CO)[C@@H](O[C@@H]2O[C@H](CO)[C@H](O)[C@H](O)[C@H]2O)[C@H](O)[C@H]1O)C(N)=O)C(C)C` [TES2320] (H-HSDGIFTDSYSRYRKQ[Nle]AVKKYLS(X1)-NH2; N-terminus assumed), the “effect on mTBI-induced spontaneous LHb tonic hyperactivity” value (early intervention, 10 mg/kg i.p. x5, vs mTBI+vehicle p<0.01, Chi squared test) was “prevented”, the “effect on mTBI-induced spontaneous LHb tonic hyperactivity” value (late intervention, single 10 mg/kg i.p. one month post-mTBI, vs mTBI+vehicle p<0.05, Chi squared test) was “reversed” and the “LHb neurons bursting, spontaneous activity” value [1] was 4%. For the same compound, the “LHb neurons silent, spontaneous activity” value [1] was 50%, the “LHb neurons tonic, spontaneous activity” value [1] was 46% and the “LHb neurons bursting, spontaneous activity” value [2] was 5%. The “LHb neurons silent, spontaneous activity” value [2] was 48% and the “LHb neurons tonic, spontaneous activity” value [2] was 47%.
